{"source": "patent US11179412B2", "about": "“Methods of treating conditions involving elevated inflammatory response” (University of Pittsburgh—Of the Commonwealth System of …, priority 2017, dated 2021)", "key": {"[1]": {"test_system": "LPS-induced endotoxemia in C57BL/6J mice", "experiment": "Endotoxemia model (LPS)", "format": "in vivo, mouse", "experimental": "LPS (Escherichia coli […], 10 mg/kg, #L4391, Sigma) was dissolved in PBS. Male or female C57BL/6J mice (eight- to 10-weeks old, 22 to 26 g weight) received a single oral dose of LDK378 (20 mg/kg) or vehicle, then an infusion of LPS (10 mg/kg, intraperitoneally) 60 minutes later. Mice were re-treated with LDK378 or vehicle six, 12, and 24 hours after LPS infusion.\nBiochemical measurements of tissue enzymes (CK, AMYL, BUN, and ALT) in serum were performed using the IDEXX Catalyst Dx Chemistry Analyzer according to the manufacturer's protocol.\nTissues were embedded in optimum cutting temperature cryomedium (Sakura Finetek, Zoeterwoude, the Netherlands) and cut into 4 μm sections. The deparaffinized sections were then stained using the standard H&E method. The stained slides were observed using an EVOS FL Auto Cell Imaging System (Invitrogen), five fields per section and three sections per sample."}, "[2]": {"target": "T1, interaction between ALK and EGFR (Mus musculus, UniProt P97793+Q01279)", "T1 construct": "endogenous in cells; host or cells: iBMDMs", "T1 sequence (P97793 19-1621)": "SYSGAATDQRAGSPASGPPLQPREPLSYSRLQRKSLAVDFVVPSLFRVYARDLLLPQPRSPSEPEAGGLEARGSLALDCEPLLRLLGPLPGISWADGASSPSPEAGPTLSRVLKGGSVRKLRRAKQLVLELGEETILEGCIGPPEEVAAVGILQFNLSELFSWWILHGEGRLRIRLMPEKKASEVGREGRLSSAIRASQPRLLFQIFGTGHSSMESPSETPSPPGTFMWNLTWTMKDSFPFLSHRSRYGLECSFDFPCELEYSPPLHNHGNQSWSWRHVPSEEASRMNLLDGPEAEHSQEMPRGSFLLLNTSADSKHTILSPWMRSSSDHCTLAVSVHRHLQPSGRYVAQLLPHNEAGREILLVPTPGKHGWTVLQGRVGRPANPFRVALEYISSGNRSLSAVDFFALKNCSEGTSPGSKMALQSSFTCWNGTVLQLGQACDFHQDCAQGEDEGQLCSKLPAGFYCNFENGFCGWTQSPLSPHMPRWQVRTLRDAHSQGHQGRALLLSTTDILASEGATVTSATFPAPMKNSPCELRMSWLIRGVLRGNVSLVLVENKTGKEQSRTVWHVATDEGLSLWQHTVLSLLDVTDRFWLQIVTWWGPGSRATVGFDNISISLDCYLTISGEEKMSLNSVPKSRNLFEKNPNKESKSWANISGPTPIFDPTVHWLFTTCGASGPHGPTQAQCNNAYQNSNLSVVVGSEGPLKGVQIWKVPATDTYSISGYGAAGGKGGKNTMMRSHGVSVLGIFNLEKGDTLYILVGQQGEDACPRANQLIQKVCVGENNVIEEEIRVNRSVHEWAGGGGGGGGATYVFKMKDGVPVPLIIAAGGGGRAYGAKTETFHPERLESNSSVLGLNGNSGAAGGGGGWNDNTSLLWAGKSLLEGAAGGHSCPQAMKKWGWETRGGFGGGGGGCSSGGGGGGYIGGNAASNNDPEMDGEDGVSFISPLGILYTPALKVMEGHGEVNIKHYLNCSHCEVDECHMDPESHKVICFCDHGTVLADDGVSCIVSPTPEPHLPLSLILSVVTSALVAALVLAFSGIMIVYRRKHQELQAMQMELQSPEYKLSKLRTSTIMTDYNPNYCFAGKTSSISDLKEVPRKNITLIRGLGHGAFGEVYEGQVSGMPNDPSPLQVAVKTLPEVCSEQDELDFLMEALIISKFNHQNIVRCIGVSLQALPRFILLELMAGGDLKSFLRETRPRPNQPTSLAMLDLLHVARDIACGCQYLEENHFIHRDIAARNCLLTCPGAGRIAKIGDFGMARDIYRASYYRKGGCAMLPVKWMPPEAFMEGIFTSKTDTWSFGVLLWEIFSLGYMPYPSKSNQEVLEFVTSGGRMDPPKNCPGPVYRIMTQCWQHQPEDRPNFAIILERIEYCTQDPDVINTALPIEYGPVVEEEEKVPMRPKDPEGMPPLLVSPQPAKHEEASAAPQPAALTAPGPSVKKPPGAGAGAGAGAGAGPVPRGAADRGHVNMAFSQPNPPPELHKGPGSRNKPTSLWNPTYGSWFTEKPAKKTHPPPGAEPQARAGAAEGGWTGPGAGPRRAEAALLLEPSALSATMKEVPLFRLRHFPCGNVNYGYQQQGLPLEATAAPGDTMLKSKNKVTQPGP", "T1 sequence (Q01279 25-1210)": "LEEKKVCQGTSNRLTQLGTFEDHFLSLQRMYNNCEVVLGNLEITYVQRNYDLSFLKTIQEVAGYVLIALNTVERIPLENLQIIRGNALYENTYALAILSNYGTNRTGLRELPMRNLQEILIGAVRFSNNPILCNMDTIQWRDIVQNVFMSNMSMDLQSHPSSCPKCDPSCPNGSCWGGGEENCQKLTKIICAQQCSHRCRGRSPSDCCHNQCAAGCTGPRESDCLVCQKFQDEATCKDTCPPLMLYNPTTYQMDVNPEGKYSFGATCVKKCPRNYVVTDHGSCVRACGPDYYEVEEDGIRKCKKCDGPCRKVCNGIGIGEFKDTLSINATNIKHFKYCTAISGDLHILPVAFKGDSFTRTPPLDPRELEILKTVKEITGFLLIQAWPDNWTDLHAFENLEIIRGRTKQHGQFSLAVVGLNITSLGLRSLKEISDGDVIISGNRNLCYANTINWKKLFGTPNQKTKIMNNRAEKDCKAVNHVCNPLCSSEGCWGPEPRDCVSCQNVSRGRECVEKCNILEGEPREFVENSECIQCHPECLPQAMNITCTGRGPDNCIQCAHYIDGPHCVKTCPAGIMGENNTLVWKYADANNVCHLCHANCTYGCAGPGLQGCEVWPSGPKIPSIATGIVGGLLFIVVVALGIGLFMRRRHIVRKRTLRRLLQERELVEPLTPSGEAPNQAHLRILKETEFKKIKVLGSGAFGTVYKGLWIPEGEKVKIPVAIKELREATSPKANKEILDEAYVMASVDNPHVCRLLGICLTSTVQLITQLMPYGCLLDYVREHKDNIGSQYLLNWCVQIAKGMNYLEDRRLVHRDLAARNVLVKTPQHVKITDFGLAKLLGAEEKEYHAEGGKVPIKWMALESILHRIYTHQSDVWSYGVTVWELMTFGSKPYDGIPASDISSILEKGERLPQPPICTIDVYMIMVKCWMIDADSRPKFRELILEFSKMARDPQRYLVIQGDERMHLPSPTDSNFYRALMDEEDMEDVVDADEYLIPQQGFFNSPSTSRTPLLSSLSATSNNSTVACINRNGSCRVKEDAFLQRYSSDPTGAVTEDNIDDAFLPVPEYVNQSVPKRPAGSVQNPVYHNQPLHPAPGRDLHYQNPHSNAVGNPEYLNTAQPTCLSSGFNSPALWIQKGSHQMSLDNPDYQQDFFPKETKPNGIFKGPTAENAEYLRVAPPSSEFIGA", "experiment": "IP analysis of the interaction between ALK and EGFR, iBMDMs", "format": "cell-based", "conditions": "3′3′-cGAMP or c-di-AMP 10 μg/ml, 16 hours, 10 μM", "experimental": "Concentrations of proteins in the supernatant were determined by bicinchoninic acid assay. […] Following incubation, agarose/sepharose beads were washed extensively with PBS and proteins were eluted by boiling in 2× sodium dodecyl sulfate (SDS) sample buffer before SDS-PAGE electrophoresis."}, "[3]": {"test_system": "IFNβ mRNA in iBMDMs", "experiment": "IFNβ mRNA Q-PCR, iBMDMs", "format": "cell-based, mouse", "conditions": "STING ligands 10 μg/ml, inhibitor 10 μM, 16 hours", "experimental": "(§1) Total RNA was extracted using QIAGEN RNeasy Plus Kit according to the manufacturer's instructions. First-strand cDNA was synthesized from 1 μg of RNA using the iScript cDNA Synthesis kit (#1708890, Bio-Rad). Briefly, 20 μl reactions were prepared by combining 4 μl iScript Select reaction mix, 2 μl gene-specific enhancer solution, 1 μl reverse transcriptase, 1 μl gene-specific assay pool (20×, 2 μM), and 12 μl RNA diluted in RNase-free water. Quantitative real-time PCR was carried out using synthesized cDNA, primers, and SsoFast EvaGreen Supermix (#172-5204, Bio-Rad). The expression of target genes was calculated using the ddCt method relative to the expression of a house-keeping gene, β-actin. Data shown are the relative quantity (RQ), with RQ of the control cells set to one."}, "[4]": {"test_system": "IFNβ mRNA in pPMs", "experiment": "IFNβ mRNA Q-PCR, pPMs", "format": "cell-based, mouse", "conditions": "STING ligands 10 μg/ml, inhibitor 10 μM, 16 hours", "experimental": "as §1"}, "[5]": {"test_system": "IFNβ mRNA in J774A.1 cells", "experiment": "IFNβ mRNA Q-PCR, J774A.1 cells", "format": "cell-based, mouse", "conditions": "STING ligands 10 μg/ml, inhibitor 10 μM, 16 hours", "experimental": "as §1"}, "[6]": {"test_system": "IFNβ mRNA in THP1 cells", "experiment": "IFNβ mRNA Q-PCR, THP1 cells", "format": "cell-based, human", "conditions": "STING ligands 10 μg/ml, inhibitor 10 μM, 16 hours", "experimental": "as §1"}, "[7]": {"test_system": "receptor tyrosine kinase phosphorylation in iBMDMs", "experiment": "Proteome Profiler phospho-RTK array, iBMDMs", "format": "cell-based, mouse", "conditions": "3′3′-cGAMP or c-di-AMP 10 μg/ml, 16 hours, LDK378 10 μM", "text": "The Proteome Profiler Mouse XL Cytokine Array Kit (#ARY028) and the Proteome Profiler Mouse Phospho-RTK Array Kit (#ARY014) are membrane-based sandwich immunoassays. Captured antibodies spotted in duplicate on nitrocellulose membranes bind to specific target proteins present in the sample (Step 1). Captured proteins are detected with biotinylated detection antibodies (Step 2) and then visualized using chemiluminescent detection reagents (Step 3). The signal produced is proportional to the amount of analyte bound. The intensities of bands were analyzed with Quick Spots Image Analysis Software (Western Vision Software, http://www.wvision.com/QuickSpots.html)."}, "[8]": {"test_system": "RAW264.7 cells", "experiment": "Cell viability assay (CCK-8), RAW264.7", "format": "cell-based, mouse", "conditions": "3′3′-cGAMP 10 μg/ml, ALK inhibitor 10 μM, 16 hours", "experimental": "(§2) Cells were seeded into 96-well plates and incubated with the indicated treatments. Subsequently, 100 μl fresh medium was added to cells containing 10 μl Cell Counting Kit-8 (CCK-8) solutions (Dojindo Laboratories) and incubated for 1 h (37° C., 5% CO2). Absorbance at 450 nm was measured using a microplate reader (Tecan)."}, "[9]": {"test_system": "iBMDMs", "experiment": "Cell viability assay (CCK-8), iBMDMs", "format": "cell-based, mouse", "conditions": "3′3′-cGAMP 10 μg/ml, ALK inhibitor 10 μM, 16 hours", "experimental": "as §2"}, "[10]": {"test_system": "STING signaling (TBK1, IRF3, p65, ALK, EGFR, AKT phosphorylation) in iBMDMs", "experiment": "Western blot of STING pathway protein phosphorylation, iBMDMs", "format": "cell-based, mouse", "experimental": "For immunoblotting, cells were lysed in Cell Lysis Buffer (#9803, Cell Signaling Technology) with protease inhibitor cocktail (Promega), phosphatase inhibitor cocktail (Sigma), and 1 mM Na3VO4 (70). Cleared lysates were resolved by SDS-PAGE (#3450124, Bio-Rad) and then transferred onto PVDF membranes (#1704273, Bio-Rad). The membranes were blocked with Tris-buffered saline Tween 20 (TBST) containing 5% skim milk for 1 h at room temperature and then incubated with the indicated primary antibodies (1:1000-1:5000) overnight at 4° C. After being washed with TBST, the membranes were incubated with an HRP-linked anti-mouse IgG secondary antibody (#7076, Cell Signaling Technology) or HRP-linked anti-rabbit IgG secondary antibody (#7074, Cell Signaling Technology) for 1 h at room temperature. The membranes were washed three times in TBST and then visualized and analyzed with a ChemiDoc Touch Imaging System (#1708370, Bio-Rad). The intensities of bands were analyzed with Image Lab software."}, "[11]": {"test_system": "STING activation (IFNβ release) in pPBMCs", "experiment": "IFNβ release ELISA, primary peripheral blood mononuclear cells (pPBMCs)", "format": "cell-based", "conditions": "human pPBMCs; 3′3′-cGAMP 10 μg/ml, 16 hours; compound 10 μM", "experimental": "Macrophages or monocytes were treated with 3′3′-cGAMP (10 μg/ml, Invitrogen) for 16 hours in the absence or presence of one compound (10 μM) from the Target-selective Inhibitory Library (#L3500, Selleck Chemicals). Commercially available enzyme-linked immunosorbent assay (ELISA) kits were used to measure the concentrations of mouse IFNβ (Thermo Fisher Scientific) or human IFNβ (Thermo Fisher Scientific) in culture medium according to the manufacturer's instructions."}, "[12]": {"conditions": "LPS 10 mg/kg, LDK378 20 mg/kg, 24 hours"}}, "note": "Entries after “also recorded” stand apart in the source; their conditions may differ.", "data": [{"smiles": "Cc1cc(Nc2ncc(Cl)c(Nc3ccccc3S(=O)(=O)C(C)C)n2)c(OC(C)C)cc1C1CCNCC1", "note": "[LDK378, 5-chloro-N^2-(2-isopropoxy-5-methyl-4-(piperidin-4-yl)phenyl)-N^4-[2-(propane-2-sulfonyl)-phenyl]-pyrimidine-2,4-diamine]", "values": [{"measurement": "endotoxemic lethality (LPS-induced animal death)", "setting": "[1]; LPS 10 mg/kg i.p., LDK378 20 mg/kg", "result": "promoted similar protection; also recorded: conferred significant protection; also recorded: prevented"}, {"measurement": "organ dysfunction (serum enzyme activity)", "setting": "[1]; LPS 10 mg/kg, LDK378 20 mg/kg, 12-48 hours", "result": "promoted similar protection"}, {"measurement": "endotoxemia-induced tissue injury (H&E)", "setting": "[1]; [12]", "result": "promoted similar protection; also recorded: prevented"}, {"measurement": "proinflammatory cytokine expression (mRNA)", "setting": "[1]; [12]", "result": "promoted similar protection"}, {"measurement": "proinflammatory cytokine release (serum antibody array)", "setting": "[1]; [12]", "result": "promoted similar protection"}, {"measurement": "top five downregulated circulating immune chemical mediators compared with control group", "setting": "[1]; LPS 10 mg/kg, serum, 24 hours", "result": "EGF, CD14, CXCL1, endoglin, and CCL22"}, {"measurement": "interaction between ALK and EGFR", "setting": "[2]", "result": "reduced"}, {"measurement": "STING ligand-induced IFNβ mRNA expression", "setting": "[3]", "result": "attenuation"}, {"measurement": "STING ligand-induced IFNβ mRNA expression", "setting": "[4]", "result": "attenuation"}, {"measurement": "STING ligand-induced IFNβ mRNA expression", "setting": "[5]", "result": "attenuation"}, {"measurement": "STING ligand-induced IFNβ mRNA expression", "setting": "[6]", "result": "attenuation"}, {"measurement": "STING ligand-induced upregulated phosphorylation of various RTKs, including EGFR", "setting": "[7]", "result": "impaired"}, {"measurement": "cell viability", "setting": "[8]", "result": "did not affect cell viability"}, {"measurement": "cell viability", "setting": "[9]", "result": "did not affect cell viability"}, {"measurement": "3′3′-cGAMP-induced p-TBK1", "setting": "[10]; 3′3′-cGAMP 10 μg/ml, 10 μM, three to 16 hours", "result": "time-dependently reduced"}, {"measurement": "STING ligand-induced phosphorylation of TBK1, IRF3, and p65", "setting": "[10]; 3′3′-cGAMP or c-di-AMP 10 μg/ml, 16 hours, 10 μM", "result": "diminished"}, {"measurement": "LPS-induced phosphorylation of TBK1, IRF3, and p65", "setting": "[10]; LPS 1 μg/ml, LDK378 10 μM, three hours", "result": "inhibited"}, {"measurement": "3′3′-cGAMP-, c-di-AMP-, and DMXAA-induced p-IRF3 and p-p65", "setting": "[10]; ligand 10 μg/ml, 10 μM", "result": "inhibited"}, {"measurement": "c-di-AMP- or DMXAA-induced p-TBK1", "setting": "[10]; ligand 10 μg/ml, 10 μM, 16 hours", "result": "inhibited"}, {"measurement": "3′3′-cGAMP- or c-di-AMP-induced phosphorylation of ALK, EGFR, and AKT", "setting": "[10]; ligand 10 μg/ml, 16 hours, 10 μM", "result": "attenuated"}, {"measurement": "3′3′-cGAMP-induced IFNβ release", "setting": "[11]", "result": "confirmed their inhibitory properties"}]}]}
